Measured values reported in PMC12767106, “In Situ Assembly of Transformable Monopeptide on Activated Neutrophils Attenuates NETs‐Induced Hepatocellular Carcinoma Metastasis by Disrupting NE Nuclear Translocation” (Advanced Science, 2025).

Tested on: Hepa1-6/luc liver and lung metastasis
Assay: Liver and lung metastasis model
Format: in vivo, mouse
Settings: Hepa1-6/luc cells via spleen or tail vein, 300 µM in 200 µL i.v. every two days, 16 days, n = 5
Excerpt: Submitted to Advanced Science
effector T cells (CD45+CD3+CD8+)/(CD45+CD3+CD4+), tumor cells were stained with anti-CD45-FITC
(Biolegend), anti-CD3ε-PerCP-Cy5.5 (Biolegend), anti-CD4-APC (Biolegend), and anti-CD8a-PE (Biolegend)
antibodies according to the standard protocol. For evaluation of NK cells (CD45+CD3-NK1.1+), tumor cells
were stained with anti-CD45-FITC (Biolegend), anti-CD3-PE (Biolegend) and anti-CD49b-APC (Biolegend)
antibodies and examined using flow cytometry. For MDSCs (CD45+CD11b+Gr-1+) analysis, tumor cells were
stained with anti-CD45-FITC, anti-CD11b-BrilliantViolet-510 (Biolegend), anti -F4/80-PE (Biolegend), and
anti-Gr-1-APC (Biolegend) antibodies for flow cytometry examination (BD FACS Canto SORP, USA). The
software FlowJo V10.6.2 was used for data analysis. To further explore the immunomodulatory effects of FTP-
NPs. Tumor tissues were harvested for immune profiling. Plasma cytokine levels, including IL-6, IL-10, and
TNF-α, were measured using commercially available ELISA kits to assess the immune activation induced by
Experimental liver and lung metastasis model
Six-week-old male C57BL/6J mice (20–25 g) were used to establish liver and lung metastasis models. Hepa1-
6/luc cells (1 × 10^6 cells) were injected into the spleen or tail vein of the mice to induce liver or lung
metastasis, respectively. For the liver metastasis model, Hepa1-6/luc cells were injected into the spleen, allowing
tumor cells to circulate and establish metastases in the liver. For the lung metastasis model, Hepa1-6/luc cells
were injected via the tail vein, leading to the formation of metastases in the lungs. Following cell implantation, […]
euthanized, and metastases were assessed macroscopically. […]
injecting D-Luciferin (150 mg/kg) intraperitoneally, and tumor burden was quantified using the IVIS Spectrum […]
conducted, and metastatic lesions were assessed under an inverted microscope (Axiovert 200, Zeiss, Germany). […]
300 μM per injection) for mice. […] (b) Fluorescence quantized chart […]
experiments. Statistical significance was calculated by one-way ANOVA, *p < 0.050.(c, d) Photographs of lung […]

SMILES: CC(C)(C)C(=O)Oc1ccc(S(=O)(=O)Nc2ccccc2C(=O)NCC(=O)O)cc1 [NEi, Sivelestat, reference compound]
- liver and lung metastasis (bioluminescent signals, number of metastatic foci): obvious metastases
